Data on 2 compounds can be found in PMC12865225 (Clinical and Translational Science, 2026).

The target of the assay is T1, OATP2B1 (Homo sapiens, UniProt O94956).
T1 construct: expressed in transfected cells; host or cells: HEK293 (recombinant baculovirus-mediated transduction)
T1 sequence (O94956 1-709): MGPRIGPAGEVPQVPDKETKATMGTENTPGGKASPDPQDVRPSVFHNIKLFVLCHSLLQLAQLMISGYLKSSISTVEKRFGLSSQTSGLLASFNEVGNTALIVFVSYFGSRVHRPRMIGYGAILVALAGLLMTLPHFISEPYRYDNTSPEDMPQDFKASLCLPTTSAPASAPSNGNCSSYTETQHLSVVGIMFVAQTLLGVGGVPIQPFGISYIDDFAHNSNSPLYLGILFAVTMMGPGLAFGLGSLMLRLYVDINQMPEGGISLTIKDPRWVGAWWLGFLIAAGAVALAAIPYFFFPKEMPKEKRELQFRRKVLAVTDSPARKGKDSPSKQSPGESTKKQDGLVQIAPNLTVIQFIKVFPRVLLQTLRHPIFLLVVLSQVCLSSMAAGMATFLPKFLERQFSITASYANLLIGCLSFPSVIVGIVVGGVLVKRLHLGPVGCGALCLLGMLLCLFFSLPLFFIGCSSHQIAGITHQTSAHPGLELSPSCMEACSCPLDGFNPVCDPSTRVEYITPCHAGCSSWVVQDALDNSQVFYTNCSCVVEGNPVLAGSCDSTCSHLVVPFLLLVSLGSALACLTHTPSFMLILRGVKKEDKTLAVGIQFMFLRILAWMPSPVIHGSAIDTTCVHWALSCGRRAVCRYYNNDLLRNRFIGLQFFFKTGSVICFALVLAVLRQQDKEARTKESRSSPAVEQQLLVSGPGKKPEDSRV
Kind of assay: OATP2B1 inhibition with fluorescent substrate 4′,5′-dibromofluorescein in HEK293 cells. It is filed as cell-based. Conditions: 1 µM 4′,5′-dibromofluorescein, 5 min, 30 min preincubation. The protocol:
8- (2- [Fluoresceinyl]aminoethylthio)adenosine- 3', 5'- cyclic monophosphate (8-Fluo-cAMP) was acquired from Biolog Life Science Institute (Bremen, Germany), 4′,5′-dibromofluorescein was acquired from Sigma-Aldrich (St. Louis, MO, USA) and 2′,7′-dichlorofluorescein was acquired from Santa Cruz Biotechnology (Dallas, TX, USA).
Inhibition studies with fluorescent substrates in OATP transduced HEK293 cells The concentrations of fluorescent probe substrates were 1 µM 2′,7′-dichlorofluorescein for OATP1B1, 2.5 µM 8-Fluo-cAMP for OATP1B3 and 1 µM 4′,5′-dibromofluorescein for OATP2B1, and these concentrations were selected to be within or below of previously reported […]
reported linear ranges of transport for these substrate-transporter combinations.1,2,4 8-Fluo-cAMP was dissolved in ultrapure water, while dimethyl sulfoxide (DMSO) was used for all other compounds. […] For the quantification of fluorescent substrates, cells were lysed with 120 µl of lysis solution (1% Triton X-100, 5 mM EDTA, 150 mM sodium chloride and 150 mM TRIC-hydrochloride and adjusted to pH 8 with sodium hydroxide) for 30 min at 300 RPM shaking before transferring 80 µl of samples to a transparent 96-well plate containing 20 µl of 0.5 M sodium hydroxide. […] The plates were measured with a fluorescent plate reader (Varioskan LUX from ThermoFisher Scientific). […]

SMILES strings stand for the structures. pIC50: −log10 of the molar value.

By pIC50 is commonly meant the IC50 on a negative log10 scale, so that one unit is a factor of ten. For the compound `Cc1onc(-c2c(Cl)cccc2Cl)c1C(=O)N[C@@H]1C(=O)N2[C@@H]1SC(C)(C)[C@@H]2C(=O)O` [Dicloxacillin], the pIC50 is 4.42. As for `Cc1onc(-c2c(F)cccc2Cl)c1C(=O)N[C@@H]1C(=O)N2[C@@H]1SC(C)(C)[C@@H]2C(=O)O` [Flucloxacillin], the pIC50 was 4.12.
